Data set [1] relates to in vivo transduced RG2(TK+) tumor. The experiment in a line: Quantitative autoradiography of 2-[14C]-FIAU after in vivo transfection of RG2 tumors by the STK retrovirus. As to conditions: 24 h. The arrangement: species or system rat. The protocol:
(§1) Imaging in vivo transfection of RG2 tumors by the STK retrovirus in experimental animals. […] The left hemisphere was inoculated with gp-STK-A2 vector-producer cells only. Ten days after inoculation, animals were injected i.v. with 50 uCi of 2-[^14 C]-FIAU, killed 24 hours later and the brain was processed for QAR and histology. The HSV1-tk transfected tumor was well visualized on the autoradiographic image (FIG. 11B). […] Surrounding normal brain and the area inoculated only with gp-STK-A2 vector-producer cells are poorly or not at all visualized. […] Quantitative analysis yielded mean activities of 0.34±0.24% dose/g for the in vivo transduced RG2(TK+) and 0.028±0.023% dose/g for the gp-STK-A2 vector-producer cell inoculated area prior to rinsing.

Assay in data set [2]: as above
The arrangement: species or system rat. As to conditions: rat, iv, 50 uCi. The protocol: as §1

The nature of data set [3]: Calculated permeability surface area product (PS) of the cerebral capillaries. The arrangement: unit not given here. From the text: Passage of the nucleosides across the blood brain barrier (BBB) is an important factor to consider in the design of radiolabelled 2'-fluoro-nucleoside analogues for imaging HSV1-TK expression in the brain. […] It is known that brain capillary permeability for many compounds is related to their octanol/water partition coefficient (P) and molecular weight. [Levin, V. N. J. Med. Chem., 23: 682-4, 1980] Several authors have described a relationship between the brain capillary permeability and log P or log P·Dm, where Dm is a measure of diffusibility. […] [Dischino, D. D., Welch, M. J., Kilbourn, M. N., and Raichle, M. E., J. Nucl. Med., 24: 1030-8, 1983] […] Fenstermacher, J. D. Drug transfer across the blood brain barrier. In: Topics in Pharmaceutical Sciences. Ed.: Breimer, D. D., and Speiser, P. Amsterdam: Elsevier, pp. 143-54, 1983; Fenstermacher, J. D., and Rapoport, S. I. In: Handbook of Physiology. The Cardiovascular System. Microcirculation. Bethesda, Md.: Am. Physiol. Soc., sect. 2, Vol. IV, pt. 2, chapt. 21, p. 969-1000, 1984; Fenstermacher, J. D. In: Implications of Blood-Brain Barrier and Its Manipulation. Basic Science Aspects. Ed. by Neuwelt, E., New York: Plenum, Vol. 1, Chapt. 6, pp. 132-55, 1988]

Where two headings read alike, the source gives them in different places.

Take `O=c1[nH]c(=O)n([C@@H]2O[C@H](CO)[C@@H](O)[C@@H]2F)cc1I` [FIAU, 2'-fluoro-5-iodo-1-β-D-arabinofuranosyl-uracil]: the adjacent brain activity result in data set [1] (level of detection on the autoradiograms) is recorded as “below the level of detection”. This compound also returned a peak activity in data set [1] (in vivo transduced RG2(TK+) tumor) of 0.96 % dose/g. The tissue uptake at 24 h is 0.028 ± 0.023 %ID/g in data set [2] (gp-STK-A2 vector-producer cell inoculated area, prior to rinsing, read-out: mean activity); 0.34 ± 0.24 %ID/g in data set [2] (in vivo transduced RG2(TK+) tumor, prior to rinsing, read-out: mean activity); 0.96 %ID/g in data set [2] (in vivo transduced RG2(TK+) tumor, read-out: peak activity). The “PS*” value in data set [3] (calculated from measured log P and MW: log(PS)=5.2+log(P·Dm)) is recorded as 0.59. Moreover, the “PS+” value in data set [3] (calculated from published log P and MW: log(PS)=5.2+log(P·Dm)) is 0.59.

The record behind these values is US5703056A, “Non-invasive imaging of gene transfer” (priority 1995, dated 1997).
